Reference: patent publication US9157917B2, “Applications of Indoloindole and Indoloquinoline dyes” (Biosynth AG, priority 2010, dated 2015)

Legend:
[1] = tested on: E. coli; assay: Fluorescence of Aldol 495 nonanoate in nutrient broth cultures; type: cell-based
[2] = Fluorescence of Aldol 495 nonanoate in nutrient broth, sterile control; type: physicochemical
[3] = tested on: various bacterial strains; assay: Nonanoate indicators in buffered peptone water in polystyrene plates; type: cell-based; conditions: 0.4 mM, polystyrene plate, 37° C., 48 hours, excitation 360 nm, emission 560 nm
Description: Buffered peptone water containing either 0.4 mM Aldol™ 495 nonanoate or 0.2 mM 4-methylumbelliferyl nonanoate was dispensed in a microtiter plate and inoculated with about 700 cfu/ml of various bacterial strains. […] An excitation wavelength of 360 nm was used for both dyes, the emission wavelength was 560 nm for the Aldol™ 495 dye and 460 nm for the 4-methylumbelliferone.

[4] = tested on: Salmonella; assay: Salmonella grown in medium with precursor emulsion in glass tubes; type: cell-based; conditions: medium without detergents
[5] = tested on: S. enteritidis; assay: Fluorescence of Aldol 495 nonanoate in nutrient broth cultures; conditions: for Fluorescence values: S. enteritidis

SMILES: CCCCCCCCC(=O)Oc1cn(-c2ccccc2C(=O)c2cccn2C)c2cc(Cl)ccc12 [Aldol™ 495 nonanoate]
- Fluorescence values ([1]; stock solution 50 mM, 0 h): 424 RFU
- Fluorescence values ([1]; stock solution 50 mM, 12 h): 463 RFU
- Fluorescence values ([1]; stock solution 50 mM, 18 h): 551 RFU
- Fluorescence values ([1]; stock solution 50 mM, 48 h): 1710 RFU
- Fluorescence values ([1]; stock solution 50 mM, 120 h): 3851 RFU
- Fluorescence values ([1]; stock solution 200 mM, 0 h): 444 RFU
- Fluorescence values ([1]; stock solution 200 mM, 12 h): 404 RFU
- Fluorescence values ([1]; stock solution 200 mM, 18 h): 468 RFU
- Fluorescence values ([1]; stock solution 200 mM, 48 h): 774 RFU
- Fluorescence values ([1]; stock solution 200 mM, 120 h): 1924 RFU
- Fluorescence values ([2]; stock solution 50 mM, 0 h): 392 RFU
- Fluorescence values ([2]; stock solution 50 mM, 12 h): 445 RFU
- Fluorescence values ([2]; stock solution 50 mM, 18 h): 434 RFU
- Fluorescence values ([2]; stock solution 50 mM, 48 h): 511 RFU
- Fluorescence values ([2]; stock solution 50 mM, 120 h): 523 RFU
- Fluorescence values ([2]; stock solution 200 mM, 0 h): 433 RFU
- Fluorescence values ([2]; stock solution 200 mM, 12 h): 399 RFU
- Fluorescence values ([2]; stock solution 200 mM, 18 h): 411 RFU
- Fluorescence values ([2]; stock solution 200 mM, 48 h): 422 RFU
- Fluorescence values ([2]; stock solution 200 mM, 120 h): 455 RFU
- Specificity of fluorescence [3]: specific for Salmonella strains
- Fluorescence of Salmonella culture [4]: yellow green fluorescence
- Fluorescence signal, indicator added from 20 mM stock solution versus 200 mM stock solution [5]: stronger fluorescence signal
- Fluorescence values ([5]; stock solution 50 mM, 0 h): 406 RFU
- Fluorescence values ([5]; stock solution 50 mM, 12 h): 2922 RFU
- Fluorescence values ([5]; stock solution 50 mM, 18 h): 10047 RFU
- Fluorescence values ([5]; stock solution 50 mM, 48 h): 45027 RFU
- Fluorescence values ([5]; stock solution 50 mM, 120 h): 13424 RFU
- Fluorescence values ([5]; stock solution 200 mM, 0 h): 412 RFU
- Fluorescence values ([5]; stock solution 200 mM, 12 h): 1812 RFU
- Fluorescence values ([5]; stock solution 200 mM, 18 h): 3449 RFU
- Fluorescence values ([5]; stock solution 200 mM, 48 h): 8403 RFU
- Fluorescence values ([5]; stock solution 200 mM, 120 h): 5169 RFU
